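Assay format: 96-well plates, 48-hour exposure. GI50 marks 50% less growth. Definition used: TGI = concentration required for complete inhibition of growth.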
What was measured:
Experiment in all cases: NCI-60 cell line screen, 48 h
[1] = system: UO-31 renal
[2] = system: NCI/ADR-RES ovarian
[3] = system: SNB-75 CNS
[4] = system: HOP-92 NSCLC
[5] = system: TK-10 renal
[6] = system: NCI-H226 lung
[7] = system: SR leukemia
[8] = system: SF-295 CNS
[9] = system: MALME-3M melanoma
[10] = system: SF-539 CNS
[11] = system: SK-MEL-2 melanoma
[12] = system: OVCAR-3 ovarian
[13] = system: SW-620 colon
[14] = system: 786-0 renal
[15] = system: M14 melanoma
[16] = system: HL-60(TB) leukemia
[17] = system: UACC-62 melanoma
[18] = system: SN12C renal
[19] = system: HCC-2998 colon
[20] = system: KM12 colon
[21] = system: HCT-116 colon
[22] = system: CCRF-CEM leukemia
[23] = system: MOLT-4 leukemia
[24] = system: RPMI-8226 leukemia
[25] = system: A549 NSCLC
[26] = system: IGROV1 ovarian
[27] = system: U251 CNS
[28] = system: SF-268 CNS
[29] = system: MCF7 breast
[30] = system: NCI-H460 lung
[31] = system: DU-145 prostate
[32] = system: HS 578T breast
[33] = system: CAKI-1 renal
[34] = system: K-562 leukemia
[35] = system: UACC-257 melanoma
[36] = system: COLO 205 colon
[37] = system: BT-549 breast
[38] = system: RXF 393 renal
[39] = system: T-47D breast
[40] = system: OVCAR-5 ovarian
[41] = system: LOX IMVI melanoma
[42] = system: EKVX NSCLC
[43] = system: SK-OV-3 ovarian
[44] = system: HT29 colon
[45] = system: HCT-15 colon
[46] = system: SNB-19 CNS
[47] = system: HOP-62 NSCLC
[48] = system: A498 renal
[49] = system: PC-3 prostate
[50] = system: OVCAR-8 ovarian
[51] = system: NCI-H23 lung
[52] = system: MDA-MB-435
[53] = system: SK-MEL-28 melanoma
[54] = system: NCI-H522 lung
[55] = system: MDA-MB-231 breast
[56] = system: OVCAR-4 ovarian
[57] = system: SK-MEL-5 melanoma
[58] = system: ACHN renal

O=C(Cc1ccc(Nc2ccnc(C(F)(F)F)c2)cc1)N/N=C/c1ccccc1O
GI50 [1]: 1.52 µM | TGI [1]: > 26 µM | GI50 [2]: 2.83 µM | TGI [2]: 33 µM | GI50 [3]: 4.81 µM | TGI [3]: 79.3 µM | GI50 [4]: 1.97 µM | TGI [4]: 21 µM | GI50 [5]: 4.43 µM | TGI [5]: > 45.3 µM | GI50 [6]: 3.85 µM | TGI [6]: > 55.6 µM | GI50 [7]: 0.352 µM | TGI [7]: 4.61 µM | GI50 [8]: 2.72 µM | TGI [8]: 38 µM | GI50 [9]: 4.07 µM | TGI [9]: > 38.4 µM | GI50 [10]: 2.44 µM | TGI [10]: 12.2 µM | GI50 [11]: 3.12 µM | TGI [11]: 24.5 µM | GI50 [12]: 0.793 µM | TGI [12]: 25.8 µM | GI50 [13]: 3.02 µM | TGI [13]: 17 µM | GI50 [14]: 3.59 µM | TGI [14]: > 62.7 µM | GI50 [15]: 1.82 µM | TGI [15]: 19.5 µM | GI50 [16]: 1.9 µM | TGI [16]: 5.44 µM | GI50 [17]: 2.17 µM | TGI [17]: 21.5 µM | GI50 [18]: 2.9 µM | TGI [18]: > 58.6 µM | GI50 [19]: 1.16 µM | TGI [19]: 10.8 µM | GI50 [20]: 2.09 µM | TGI [20]: 15.5 µM | GI50 [21]: 1.92 µM | TGI [21]: > 39.6 µM | GI50 [22]: 0.716 µM | TGI [22]: 8.31 µM | GI50 [23]: 0.904 µM | TGI [23]: 7.79 µM | GI50 [24]: 0.824 µM | TGI [24]: 16.2 µM | GI50 [25]: 4.49 µM | TGI [25]: > 100 µM | GI50 [26]: 2.35 µM | TGI [26]: > 24.7 µM | GI50 [27]: 1.87 µM | TGI [27]: > 54.8 µM | GI50 [28]: 2.17 µM | TGI [28]: > 73.8 µM | GI50 [29]: 2.94 µM | TGI [29]: 23.7 µM | GI50 [30]: 1.37 µM | TGI [30]: 10.6 µM | GI50 [31]: 3.17 µM | TGI [31]: > 58.1 µM | GI50 [32]: 2.66 µM | TGI [32]: 29 µM | GI50 [33]: 1.35 µM | TGI [33]: 13 µM | GI50 [34]: 2.74 µM | TGI [34]: 20.1 µM | GI50 [35]: 3.18 µM | TGI [35]: > 28.7 µM | GI50 [36]: 4.33 µM | TGI [36]: 22.8 µM | GI50 [37]: 2.43 µM | TGI [37]: > 39.2 µM | GI50 [38]: 3.95 µM | TGI [38]: 38.7 µM | GI50 [39]: 3.26 µM | TGI [39]: 17.7 µM | GI50 [40]: 7.62 µM | TGI [40]: > 83.1 µM | GI50 [41]: 1.34 µM | TGI [41]: 15.9 µM | GI50 [42]: 3.05 µM | TGI [42]: > 60.9 µM | GI50 [43]: 3.13 µM | TGI [43]: > 68.5 µM | GI50 [44]: 6.53 µM | TGI [44]: 56 µM | GI50 [45]: 0.634 µM | TGI [45]: > 69.5 µM | GI50 [46]: 4.36 µM | TGI [46]: > 100 µM | GI50 [47]: 3.08 µM | TGI [47]: > 48.6 µM | GI50 [48]: 11.2 µM | TGI [48]: > 57.9 µM | GI50 [49]: 1.09 µM | TGI [49]: 16.6 µM | GI50 [50]: 3.15 µM | TGI [50]: > 69.4 µM | GI50 [51]: 4.23 µM | TGI [51]: > 59.1 µM | GI50 [52]: 3.67 µM | TGI [52]: > 77.5 µM | GI50 [53]: 3.89 µM | TGI [53]: 61.4 µM | GI50 [54]: 8.96 µM | TGI [54]: 35.9 µM | GI50 [55]: 2.55 µM | TGI [55]: > 74.9 µM | GI50 [56]: 3.29 µM | TGI [56]: > 100 µM | GI50 [57]: 2.58 µM | TGI [57]: 11.1 µM | GI50 [58]: 1.46 µM | TGI [58]: > 51.4 µM

Source: PubChem BioAssay (NCI)
